This note sets out measurements from patent publication US9802899B2, “Heterocyclic compounds as pesticides” (BAYER CROPSCIENCE AG, priority 2012, dated 2017).

A short description of data set [1]: Determination of the log P values by HPLC (formic acid method). Particulars: reversed-phase column (C 18), acidic range (pH 3.4), 55° C.; for chromatographic logP: reversed-phase HPLC column (C 18). The format is physicochemical. As for the experimental part: 1) Description of Method for Determination of the Log P Values (Formic Acid Method)
Eluents for determination in the acidic range (pH 3.4):
Eluent A: acetonitrile+1 ml of formic acid/liter. Eluent B: water+0.9 ml of formic acid/liter.
The lambda max values were determined in the maxima of the chromatographic signals using the UV spectra from 200 nm to 400 nm.

Another data set has as its system Phaedon cochleariae. The data set can be described thus: Phaedon cochleariae spray test (PHAECO). Particulars: foliar, 168 h, application rate 500 g/ha, larvae on Chinese cabbage leaf discs, after 7 days, read-out: efficacy. It counts as in vivo. As for the experimental part: Phaedon cochleariae Spray Test (PHAECO)
(§1) Solvents: 78.0 parts by weight of acetone • • 1.5 parts by weight of dimethylformamide
(§2) Emulsifier: 0.5 part by weight of alkylaryl polyglycol ether
(§3) To produce a suitable preparation of active compound, 1 part by weight of active compound is mixed with the stated amounts of solvents and emulsifier, and the concentrate is diluted with emulsifier-containing water to the desired concentration.
After 7 days, the efficacy in % is determined. 100% means that all of the beetle larvae have been killed; 0% means that none of the beetle larvae have been killed.

Another data set deals with Spodoptera frugiperda. As to the kind of experiment: Spodoptera frugiperda spray test (SPODFR). The format is in vivo. As to conditions: application rate 500 g/ha; caterpillars on maize leaf discs; after 7 days. How it is done: Spodoptera frugiperda Spray Test (SPODFR)
as §1, §2, §3
Leaf discs of maize (Zea mays) are sprayed with an active compound formulation of the desired concentration and, after drying, populated with caterpillars of the armyworm (Spodoptera frugiperda).
After 7 days, the efficacy in % is determined. 100% means that all of the caterpillars have been killed; 0% means that none of the caterpillars have been killed.

Data set [2] concerns Boophilus microplus. The data set can be described thus: Boophilus microplus test (BOOPMI injection). It counts as in vivo. As to conditions: application rate 20 μg/animal; injection into the abdomen; after 7 days by laying of fertile eggs. How it is done: Boophilus microplus Test (BOOPMI Injection)
(§4) Solvent: dimethyl sulphoxide
To produce a suitable preparation of active compound, 10 mg of active compound are mixed with 0.5 ml of solvent, and the concentrate is diluted with solvent to the desired concentration.
The active compound solution is injected into the abdomen (Boophilus microplus), and the animals are transferred into dishes and stored in a climate-controlled room.
The activity is assessed after 7 days by laying of fertile eggs. Eggs whose fertility is not visible from the outside are stored in a climate-controlled cabinet until the larvae hatch after about 42 days. An efficacy of 100% means that none of the ticks has laid any fertile eggs; 0% means that all eggs are fertile.

Data set [3] concerns Boophilus microplus. The data set can be described thus: Boophilus microplus test (DIP). It counts as in vivo. Particulars: application rate 100 ppm, after 7 days by laying of fertile eggs, 100% = no fertile eggs. As for the experimental part: Boophilus microplus Test (DIP)
Test animals: adult engorged Boophilus microplus females of the SP-resistant Parkhurst strain
as §4
10 mg of active compound are dissolved in 0.5 ml of dimethyl sulphoxide. For the purpose of preparing a suitable formulation, the active compound solution is diluted with water to the concentration desired in each case.
This active compound preparation is pipetted into tubes. 8-10 ticks are transferred into a further tube with holes. The tube is immersed into the active compound formulation, and all ticks are completely wetted. After the liquid has run out, the ticks are transferred onto filter discs in plastic dishes and stored in a climate-controlled room.
The activity is assessed after 7 days by laying of fertile eggs. Eggs whose fertility is not visible from the outside are stored in a climate-controlled cabinet until the larvae hatch. An efficacy of 100% means that none of the ticks has laid any fertile eggs.

A further data set deals with Ctenocephalides felis. The data set can be described thus: Ctenocephalides felis oral test (CTECFE). The format is in vivo. Particulars: application rate 100 ppm in citrated cattle blood; adult fleas; after 2 days. As for the experimental part: Ctenocephalides felis—Oral Test (CTECFE)
Solvent: 1 part by weight of dimethyl sulphoxide
To produce a suitable preparation of active compound, 10 mg of active compound are mixed with 0.5 ml of dimethyl sulphoxide. A portion of the concentrate is diluted with citrated cattle blood, and the desired concentration is prepared.
About 20 unfed adult fleas (Ctenocephalides felis) are placed into a chamber which is closed at the top and bottom with gauze. A metal cylinder whose bottom end is closed with a parafilm is placed onto the chamber. The cylinder contains the blood/active compound preparation, which can be imbibed by the fleas through the Parafilm membrane.
After 2 days, the kill in % is determined 100% means that all fleas have been killed; 0% means that none of the fleas have been killed.

The next data set has as its system Cooperia curticei. The data set can be described thus: Cooperia curticei test (COOPCU). The format is in vivo.
The next data set relates to Haemonchus contortus. As to the kind of experiment: Haemonchus contortus test (HAEMCO). The format is in vivo. Particulars: application rate 4 ppm; larvae; after 5 days. How it is done: Haemonchus contortus Test (HAEMCO)
as §4
To produce a suitable preparation of active compound, 10 mg of active compound are mixed with 0.5 ml of dimethyl sulphoxide, and the concentrate is diluted with Ringer solution to the desired concentration.
Vessels containing the active compound preparation of the desired concentration are populated with about 40 larvae of the red stomach worm (Haemonchus contortus).
After 5 days, the kill in % is determined 100% means that all of the larvae have been killed; 0% means that none of the larvae have been killed.

A further data set deals with Musca domestica. As to the kind of experiment: Musca domestica test (MUSCDO). The format is in vivo. Particulars: adult flies, after 2 days. As for the experimental part:
Musca domestica Test (MUSCDO)
as §4
To produce a suitable preparation of active compound, 10 mg of active compound are mixed with 0.5 ml of dimethyl sulphoxide, and the concentrate is diluted with water to the desired concentration.
Vessels containing a sponge treated with the active compound formulation of the desired concentration are populated with adult Musca domestica.
After 2 days, the kill in % is determined. 100% means that all of the flies have been killed; 0% means that none of the flies have been killed.

The next data set relates to Meloidogyne incognita. The data set can be described thus: Meloidogyne incognita test (MELGIN). Particulars: Meloidogyne incognita, 336 h; application rate 20 ppm; lettuce in sand; after 14 days; read-out: nematicidal effect (formation of galls). The format is in vivo. How it is done: Meloidogyne incognita Test (MELGIN)
Solvent: 125.0 parts by weight of acetone
To prepare a suitable active compound preparation, 1 part by weight of active compound is mixed with the stated amount of solvent and the concentrate is diluted with water to the desired concentration.
Vessels are filled with sand, active compound solution, an egg/larvae suspension of the root-knot nematode (Meloidogyne incognita) and lettuce seeds. The lettuce seeds germinate and the plants develop. On the roots, galls are formed.
After 14 days, the nematicidal effect in % is determined by the formation of galls. 100% means that no galls have been found; 0% means that the number of galls on the treated plants corresponds to the untreated control.

Data set [4] can be described thus: Determination of the log P values by HPLC (formic acid method). The format is physicochemical. Particulars: printed as (neutral).

As to `O=C(Nc1nn(-c2ccccc2Cl)cc1I)c1ccccc1C(F)(F)F` [Compound I-1-17, N-[4-Iodo-1-(2-chlorophenyl)-1H-pyrazol-3-yl]-2-(trifluoromethyl)benzamide], in [1], the chromatographic logP (usually lipophilicity estimated from chromatographic retention) was determined as 3.16. In addition, in the data set on Phaedon cochleariae, the pest or weed control at 500 g/ha stood at 100%. In the data set with Spodoptera frugiperda, this molecule showed an efficacy of 83%.

Take `O=C(Nc1ccn(-c2ccccc2Br)n1)c1ncccc1Cl` [Compound I-1-55]: in data set [1], the log partition coefficient (log P) (commonly a log measure of how a compound divides between an organic and an aqueous phase) was 2.76. Also, the efficacy with Boophilus microplus [2] is listed as 80%.

In [1], `O=C(Nc1cnn(-c2ccccc2Cl)n1)c1ccccc1C(F)(F)F` [Compound I-2-1, N-[2-(2-Chlorophenyl)-2H-1,2,3-triazol-4-yl]-2-(trifluoromethyl)benzamide] registered a chromatographic logP of 3.02. For the same molecule, the efficacy in the data set with Boophilus microplus [3] is on record as 100%. The figures for the “efficacy (kill)” value in the data set on Ctenocephalides felis and in the data set with Haemonchus contortus were 90% and 80%, respectively. Moreover, the pest or weed control at 4 ppm in the data set on Cooperia curticei (Cooperia curticei, 120 h, read-out: efficacy (kill)) turned out to be 100%. In addition, in the data set with Phaedon cochleariae, the pest or weed control at 500 g/ha stood at 100%.

Take `O=C(Nc1ccn(-c2ncccc2F)n1)c1ccccc1C(F)(F)F` [Compound I-1-128]: the “log P” value in data set [1] turned out to be 2.24. In the data set with Ctenocephalides felis, the “efficacy (kill)” value is given as 85%.

With `O=C(Nc1ccn(-c2ncccc2F)n1)c1ccccc1I` [Compound I-1-131], the “log P” value in data set [1] is on record as 2.22. Besides, the “efficacy (kill)” value in the data set with Ctenocephalides felis is reported as 90%.

Regarding `O=C(Nc1cnn(-c2ncccc2F)n1)c1ccccc1I` [Compound I-2-51], the “log P” value in [1] was found to be 2.14. Moreover, in the data set on Haemonchus contortus, the “efficacy (kill)” value is 80%.

On to `O=C(Nc1cnn(-c2ncccc2F)n1)c1c(F)cccc1C(F)(F)F` [Compound I-2-49], for which, in data set [1], the “log P” value is 2.26. Besides, the “efficacy (kill)” value in the data set with Haemonchus contortus worked out at 90%.

Turning to `O=C(Nc1cnn(-c2ncccc2Cl)n1)c1ccccc1C(F)(F)F` [Compound I-2-10], in data set [1], the “log P” value was found to be 2.38. Moreover, the “efficacy (kill)” value in the data set on Ctenocephalides felis came out at 90%.

For the molecule `O=C(Nc1ccn(-c2cc(F)ccc2F)n1)c1sccc1I` [Compound I-1-221], the lipophilicity (log P) in data set [1] turned out to be 3.57. Besides, the “efficacy (kill)” value in the data set on Cooperia curticei (application rate 4 ppm, nematode larvae, after 5 days) came to 90%; in the data set on Haemonchus contortus, 90%.

Regarding `O=C(Nc1ccn(-c2ncccc2Cl)n1)c1cccnc1C(F)(F)F` [Compound I-1-562], in data set [1], the “log P” value is recorded as 1.98. Besides, the “efficacy (kill)” value in the data set on Musca domestica (application rate 100 ppm) was 90%.

Regarding `O=C(Nc1ccn(-c2c(F)cccc2F)n1)c1ncccc1C(F)(F)F` [Compound I-1-91, N-[1-(2,6-Difluorophenyl)-1H-pyrazol-3-yl]-3-(trifluoromethyl)pyridine-2-carboxamide], the chromatographic logP in data set [1] amounted to 2.22. In the data set on Boophilus microplus [3], this molecule yielded an efficacy of 90%. The “efficacy (kill)” value in the data set with Ctenocephalides felis was 80%; in the data set on Musca domestica (application rate 20 ppm), 85%. Also, in the data set on Cooperia curticei (Cooperia curticei, 120 h, application rate 100 ppm, nematode larvae, after 5 days, read-out: efficacy (kill)), the pest or weed control at 100 ppm came to 90%. The pest or weed control at 20 ppm with Meloidogyne incognita was determined as 100%. For the same molecule, the pest or weed control at 500 g/ha with Phaedon cochleariae was 100%.

For `O=C(Nc1ccn(-c2c(F)cccc2F)n1)c1nccnc1C(F)(F)F` [Compound I-1-99], the “log P” value in data set [1] is listed as 2.45. In the data set with Boophilus microplus [3], this molecule gave an efficacy of 100%. Besides, the “efficacy (kill)” value in the data set on Ctenocephalides felis is given as 80%; with Musca domestica (application rate 20 ppm) it was 90%.

`O=C(Nc1ccn(-c2ccccc2Br)n1)c1c(F)cccc1C(F)(F)F` [Compound I-1-335]: in data set [4], the “log P (neutral)” value is listed as 3.02.
